The values that follow come from article PMC8805605, “Discovery of Dimeric Arylsulfonamides as Potent ADAM8 Inhibitors” (ACS Medicinal Chemistry Letters, 2021).

In the experiment the target is T1, MMP-12 (Homo sapiens, UniProt P39900).
T1 construct: purchased R&D Systems
T1 sequence (P39900 106-470): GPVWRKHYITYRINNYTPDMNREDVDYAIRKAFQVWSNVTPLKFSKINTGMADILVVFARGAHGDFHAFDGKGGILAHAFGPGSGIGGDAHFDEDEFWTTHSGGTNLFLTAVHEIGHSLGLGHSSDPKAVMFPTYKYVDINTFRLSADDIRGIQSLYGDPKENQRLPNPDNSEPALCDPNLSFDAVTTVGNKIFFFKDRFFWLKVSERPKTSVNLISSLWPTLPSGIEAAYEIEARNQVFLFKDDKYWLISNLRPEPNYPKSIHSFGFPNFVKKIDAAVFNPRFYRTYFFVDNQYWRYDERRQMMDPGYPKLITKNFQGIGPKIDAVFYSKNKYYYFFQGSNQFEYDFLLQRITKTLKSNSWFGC
As to the kind of experiment: MMP-12 fluorometric inhibition assay. Format: biochemical. Conditions: mean of three independent experiments in duplicate, read-out: In vitro inhibitory activity IC50 on MMP-12. On the procedure:
The newly synthesized bivalent derivatives 1–3 were then tested in vitro on human recombinant ADAM8 in comparison with JG26 by a fluorometric assay. The inhibitory activity against a panel of MMPs and ADAM10/17 was determined as well to assess their selectivity profile. […]
VI. Biological Activity on Isolated Enzymes
MMP and ADAM10 inhibition assays.
Recombinant human MMP-14 catalytic domain was a kind gift of Prof. Gillian Murphy (Department of […]
Oncology, University of Cambridge, UK). Pro-MMP-1, pro-MMP-2, and pro-MMP-9, were purchased […]
from Calbiochem (Merck-Millipore). Pro-MMP-12 and ADAM10 were purchased from R&D Systems.
Proenzymes were activated immediately prior to use with p-aminophenylmercuric acetate (APMA 2 […]
mM for 1 h at 37°C for MMP-2 and MMP-1, 1 mM for 1 h at 37°C for MMP-9). Pro-MMP-12 was […]
auto activated by incubating in the fluorometric assay buffer (FAB: Tris 50 mM, pH = 7.5, NaCl 150 […]
mM, CaCl2 10 mM, Brij 35 0.05% and DMSO 1%) for 30 h at 37°C. For assay measurements, each […]
inhibitor stock solution (DMSO, 10 mM) was further diluted in FAB at seven different concentrations.
Activated enzyme (final concentration 0.56 nM for MMP-2, 1.3 nM for MMP-9, 1.0 nM for MMP- […]
14cd, 2.0 nM for MMP-1, 2.3 nM for MMP-12 and 20 nM for ADAM10) and inhibitor solutions were […]
incubated in the assay buffer for 3 h at 25 °C. ADAM10 was incubated for 1 h at 37°C in a different […]
was monitored every 10 sec. for 15 min. recording the increase in fluorescence (λ ex = 325 nm, λ em = […]
400 nm) using a Molecular Devices SpectraMax Gemini XPS plate reader. […]
(RFU). Percent of inhibition was calculated from control reactions without the inhibitor. IC50 was determined using the formula: v i/v o = 1/(1 + [I]/ IC50), where v i is the initial velocity of substrate cleavage in the presence of the inhibitor at concentration [I] and v o is the initial velocity in the absence of the inhibitor. Results were analyzed using SoftMax Pro software (version 5.4.3, Molecular Devices, Sunnyvale, CA) and Prism Software version 5.0 (GraphPad Software, Inc., La Jolla, CA, USA). […]
For orientation: IC50 means the concentration at which inhibition is half-maximal. For `O=C(CCCNC(=O)c1cccc(C(=O)NCCCC(=O)NCCC[C@@H](NS(=O)(=O)c2ccc(OCc3cc(Br)cc(Br)c3)cc2)C(=O)NO)c1)NCCC[C@@H](NS(=O)(=O)c1ccc(OCc2cc(Br)cc(Br)c2)cc1)C(=O)NO` [Compound 1], the IC50 came out at 242 nM.

Turning to `O=C(NCCC[C@@H](NS(=O)(=O)c1ccc(OCc2cc(Br)cc(Br)c2)cc1)C(=O)NO)c1cccc(C(=O)NCCC[C@@H](NS(=O)(=O)c2ccc(OCc3cc(Br)cc(Br)c3)cc2)C(=O)NO)c1` [Compound 2], the IC50 came to 41 nM.

Turning to `NC(=O)NCCC[C@@H](NS(=O)(=O)c1ccc(OCc2cc(Br)cc(Br)c2)cc1)C(=O)NO` [JG26, reference compound], the IC50 was determined as 9.4 nM.
